Data published in the supplement of paper PMC10307832.

Columns and labels:
Assay in all cases: relative viability (nuclei count vs DMSO), 5 days (fraction); higher = more cells survive
Gemcitabine + Dasatinib = compound: Nc1ccn([C@@H]2O[C@H](CO)[C@@H](O)C2(F)F)c(=O)n1 [Gemcitabine] + Cc1nc(Nc2ncc(C(=O)Nc3c(C)cccc3Cl)s2)cc(N2CCN(CCO)CC2)n1 [Dasatinib] (partner 0.075 µM)
In short: (§1)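 Lung cancer cell lines, seeded in 1536-well plates, were treated the following day by pin tool with a single drug or with five library-drug doses (not always all listed) in √10 steps on top of a fixed anchor-drug dose. Cells were fixed and nuclei stained in one step after 5 days, and nuclei were counted. Relative viability is the nuclei count for treated wells divided by that for vehicle wells, reported as medians of duplicate plates.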

Gemcitabine + Navitoclax = compound: Nc1ccn([C@@H]2O[C@H](CO)[C@@H](O)C2(F)F)c(=O)n1 [Gemcitabine] + CC1(C)CCC(c2ccc(Cl)cc2)=C(CN2CCN(c3ccc(C(=O)NS(=O)(=O)c4ccc(N[C@H](CCN5CCOCC5)CSc5ccccc5)c(S(=O)(=O)C(F)(F)F)c4)cc3)CC2)C1 [Navitoclax] (partner 0.5 µM)
In short: as §1

Gemcitabine + Luminespib = compound: Nc1ccn([C@@H]2O[C@H](CO)[C@@H](O)C2(F)F)c(=O)n1 [Gemcitabine] + CCNC(=O)c1noc(-c2cc(C(C)C)c(O)cc2O)c1-c1ccc(CN2CCOCC2)cc1 [Luminespib] (partner 0.01 µM)
In short: as §1

Gemcitabine + Bortezomib = compound: Nc1ccn([C@@H]2O[C@H](CO)[C@@H](O)C2(F)F)c(=O)n1 [Gemcitabine] + CC(C)C[C@H](NC(=O)[C@H](Cc1ccccc1)NC(=O)c1cnccn1)B(O)O [Bortezomib] (partner 0.002 µM)
In short: as §1

Cell Line | relative viability (Gemcitabine + Dasatinib; first compound 0.001 µM) | relative viability (Gemcitabine + Dasatinib; first compound 0.003162 µM) | relative viability (Gemcitabine + Dasatinib; first compound 0.01 µM) | relative viability (Gemcitabine + Dasatinib; first compound 0.03162 µM) | relative viability (Gemcitabine + Dasatinib; first compound 0.1 µM) | relative viability (Gemcitabine + Navitoclax; first compound 0.001 µM) | relative viability (Gemcitabine + Navitoclax; first compound 0.003162 µM) | relative viability (Gemcitabine + Navitoclax; first compound 0.01 µM) | relative viability (Gemcitabine + Navitoclax; first compound 0.03162 µM) | relative viability (Gemcitabine + Navitoclax; first compound 0.1 µM) | relative viability (Gemcitabine + Luminespib; first compound 0.001 µM) | relative viability (Gemcitabine + Luminespib; first compound 0.003162 µM) | relative viability (Gemcitabine + Luminespib; first compound 0.01 µM) | relative viability (Gemcitabine + Luminespib; first compound 0.03162 µM) | relative viability (Gemcitabine + Luminespib; first compound 0.1 µM) | relative viability (Gemcitabine + Bortezomib; first compound 0.001 µM) | relative viability (Gemcitabine + Bortezomib; first compound 0.003162 µM) | relative viability (Gemcitabine + Bortezomib; first compound 0.01 µM) | relative viability (Gemcitabine + Bortezomib; first compound 0.03162 µM) | relative viability (Gemcitabine + Bortezomib; first compound 0.1 µM)
PC-14 | 0.262 | 0.12 | 0.0174 | 0.0131 | 0.016 | 0.986 | 0.813 | 0.619 | 0.035 | 0.0244 | 0.155 | 0.135 | 0.132 | 0.08 | 0.109 | 0.867 | 0.507 | 0.42 | 0.0489 | 0.0512
RERF-LC-KJ | 0.837 | 0.879 | 0.768 | 0.291 | 0.19 | 1.05 | 1.26 | 0.872 | 0.224 | 0.227 | 1.17 | 1.45 | 1.13 | 0.458 | 0.319 | 1.12 | 1.25 | 0.92 | 0.559 | 0.294
SK-LU-1 | 0.165 | 0.123 | 0.106 | 0.112 | 0.131 | 0.526 | 0.224 | 0.0818 | 0.117 | 0.118 | 0.175 | 0.197 | 0.188 | 0.18 | 0.169 | 1.16 | 0.281 | 0.23 | 0.175 | 0.224
SW 1573 | 0.481 | 0.258 | 0.0669 | 0.0389 | 0.0494 | 1.18 | 0.986 | 0.0907 | 0.0747 | 0.0361 | 0.192 | 0.166 | 0.0849 | 0.154 | 0.112 | 1.16 | 0.853 | 0.538 | 0.086 | 0.0926
UMC-11 | 0.464 | 0.516 | 0.415 | 0.368 | 0.223 | 0.376 | 0.309 | 0.291 | 0.21 | 0.118 | 1.18 | 1.15 | 0.834 | 0.829 | 0.47 | 0.979 | 0.693 | 0.677 | 0.669 | 0.158
